For 30 molecules, inhibition and IC50 results are on record in ChEMBL document CHEMBL3046138, “5-Aryl-1,3,4-oxadiazole-2-thiols as a New Series of trans-Cinnamate 4-Hydroxylase Inhibitors” (J Pestic Sci, 2004).

A word on the inhibition: it is how much of the control response was suppressed. Usually IC50 stands for the concentration that gives 50% inhibition.

Where only a bound is given, the exact number is not on record here.

In one assay the target is T1, Trans-cinnamate 4-monooxygenase (Populus kitakamiensis) (UniProt Q43054).
T1 sequence (whole entry): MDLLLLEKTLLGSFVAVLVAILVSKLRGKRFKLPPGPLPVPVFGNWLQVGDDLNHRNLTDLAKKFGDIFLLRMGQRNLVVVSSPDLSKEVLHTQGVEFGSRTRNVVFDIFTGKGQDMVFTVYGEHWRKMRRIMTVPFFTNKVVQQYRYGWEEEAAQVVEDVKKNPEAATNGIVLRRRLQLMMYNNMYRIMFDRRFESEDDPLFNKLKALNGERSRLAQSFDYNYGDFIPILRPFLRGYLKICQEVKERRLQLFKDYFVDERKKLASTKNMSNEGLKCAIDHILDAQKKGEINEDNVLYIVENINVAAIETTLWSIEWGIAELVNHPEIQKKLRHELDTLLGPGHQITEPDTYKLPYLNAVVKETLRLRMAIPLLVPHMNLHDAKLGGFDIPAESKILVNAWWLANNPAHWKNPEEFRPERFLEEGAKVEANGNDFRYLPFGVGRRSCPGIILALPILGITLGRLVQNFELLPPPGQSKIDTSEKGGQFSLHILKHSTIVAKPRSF
The assay can be described thus: Inhibition of Populus sieboldii x Populus grandidentata CYP73A1 at 100 uM.
In turn, `O=C(O)c1ccc2c(c1)OCO2` [PIPERONYLIC ACID] showed an inhibition of 58%.

The target of another assay is T2, Trans-cinnamate 4-monooxygenase (Helianthus tuberosus, UniProt Q04468).
T2 sequence (Q04468 whole entry): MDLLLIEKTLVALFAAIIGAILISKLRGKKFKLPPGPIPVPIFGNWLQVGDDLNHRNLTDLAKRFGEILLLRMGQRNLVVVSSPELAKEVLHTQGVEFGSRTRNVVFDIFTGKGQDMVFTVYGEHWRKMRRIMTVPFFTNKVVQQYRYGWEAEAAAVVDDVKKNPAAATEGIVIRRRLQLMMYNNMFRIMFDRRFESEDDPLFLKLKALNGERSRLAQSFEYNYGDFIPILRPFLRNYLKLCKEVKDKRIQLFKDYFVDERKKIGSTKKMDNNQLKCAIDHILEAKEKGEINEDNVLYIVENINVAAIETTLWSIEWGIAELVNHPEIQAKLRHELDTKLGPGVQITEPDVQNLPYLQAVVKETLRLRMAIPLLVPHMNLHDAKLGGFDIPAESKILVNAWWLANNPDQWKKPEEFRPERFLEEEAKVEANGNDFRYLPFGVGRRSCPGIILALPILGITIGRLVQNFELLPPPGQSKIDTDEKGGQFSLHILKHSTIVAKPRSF
The assay can be described thus: Inhibition of Helianthus tuberosus CYP73A1.
With `O=C(O)c1c(O)ccc2ccccc12`, the IC50 stood at 0.89 µM.

The target in a further assay is T3, Trans-cinnamate 4-monooxygenase (Populus kitakamiensis, UniProt Q43054).
T3 sequence (Q43054 whole entry): T1 sequence (whole entry)
Put plainly: Inhibition of Populus sieboldii x Populus grandidentata trans-cinnamate 4-hydroxylase expressed in Saccharomyces cerevisiae BJ2168 assessed as inhibition of hydroxylation of cinnamic acid after 60 min.
In the case of `S=c1[nH]nc(-c2cccc3ccccc23)o1`, the concentration for half-maximal inhibition (IC50) is greater than 100 µM.
Take `Fc1cccc(-c2nnc(S)o2)c1`: the IC50 was found to be 0.13 µM.
On the same count and under the same terms, next, `Sc1nnc(-c2cccc(Br)c2)o1`: 0.42 µM.
Still for that read-out and setting: next, `CSc1nnc(-c2ccccc2)o1`: greater than 100 µM.
The same measure, in the same setting: next, `Cc1cccc(-c2nnc(S)o2)c1`: 1.1 µM.
Take `S=c1[nH]nc(-c2ccccc2)o1`: the IC50 came out at 0.8 µM.
Consider `FC(F)(F)c1cccc(-c2nnc(S)o2)c1`, for which the IC50 is greater than 100 µM.
Consider `Sc1nnc(-c2ccc3ccccc3c2)o1`, for which the IC50 is greater than 100 µM.
On to `Cc1ccccc1-c1nnc(S)o1`, for which the half-inhibitory concentration (IC50) was 0.5 µM.
On the same count and under the same terms, next, `COc1cccc(-c2nnc(S)o2)c1`: 6.1 µM; `O=C(O)c1ccc2c(c1)OCO2` [PIPERONYLIC ACID]: greater than 100 µM.
On the same count and under the same terms, under `S=c1[nH]nc(C2CCCCC2)o1` stands greater than 100 µM; under `Sc1nnc(-c2ccccc2Cl)o1`, 0.68 µM; under `Sc1nnc(-c2cc(Cl)ccc2Cl)o1`, 2 µM.
On the same count and under the same terms, next, `Sc1nnc(/C=C/c2ccccc2)o1`: greater than 100 µM; `Sc1nnc(-c2ccco2)o1`: 5.9 µM.
In the case of `Fc1ccc(-c2nnc(S)o2)cc1`, the IC50 was found to be 3.3 µM.
Same read-out and setting: under `Sc1nnc(-c2ccccc2Br)o1` stands 0.98 µM; under `O=C(O)c1c(O)ccc2ccccc12`, 0.88 µM.
The same measure, in the same setting: under `Sc1nnc(-c2cccc(Cl)c2)o1` stands 0.21 µM; under `Sc1nnc(-c2ccncc2)o1`, 15 µM; under `Sc1nnc(-c2ccccn2)o1`, 0.58 µM.
Turning to `O=c1[nH]nc(-c2ccccc2)o1`, the IC50 was 6.7 µM.
Still for that read-out and setting: under `Sc1nnc(-c2cc(Cl)cc(Cl)c2)o1` stands greater than 100 µM.
On the same count and under the same terms, under `c1ccc(-c2nnco2)cc1` stands greater than 100 µM; under `S=c1[nH]nc(-c2ccc(Cl)cc2)o1`, 23 µM.
The same measure, in the same setting: under `Fc1ccccc1-c1nnc(S)o1` stands 0.19 µM.
Turning to `Cc1ccc(-c2nnc(S)o2)cc1`, the IC50 amounted to 50 µM.
Still for that read-out and setting: next, `Sc1nnc(-c2cccs2)o1`: 6.2 µM.
On to `Sc1nnc(-c2cccnc2)o1`, for which the IC50 stood at 0.65 µM.
